This is an account of results in US9079913B2, “Spiro-oxindole MDM2 antagonists” (The Regents of the University of Michigan, priority 2009, dated 2015).

Series [1] is described as follows: In vitro microsomal stability, rat. The series is classed as in vitro ADME.
The subject of series [2] is cancer cell lines with wild-type p53 / mutated or deleted p53 (ATCC). The series can be described thus: Cell growth assay (WST-8), other cancer cell lines. The following applies: Homo sapiens. The series is classed as cell-based.
In series [3] the target is recombinant human His-tagged MDM2 protein (residues 1-118) (Homo sapiens (Human), UniProt Q00987). The experiment in a line: Fluorescence-polarization MDM2 binding assay.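 Also: fluorescence polarization read after three hours of incubation in potassium phosphate buffer containing bovine gamma globulin and Triton X-100.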 The settings on record: Table 19A; FP binding assay; read-out: MDM2 IC50.
The subject of series [4] is Isogenic HCT-116 colon cancer cell lines. The series can be described thus: cells. In kind it is cell-based. The following applies: Homo sapiens, cell growth.
Description: Cells were seeded in 96-well flat bottom cell culture plates at a density of 2−3×10^3 cells/well with compounds and incubated for 4 days.
The mark [5] stands for this setting: LNCaP, Table 19A, LNCAP cells, p53 wild-type, cell growth, read-out: LNCAP (p53 wild-type) IC50.
[6] abbreviates: PC-3, Table 19A, PC-3 cells, deleted p53, cell growth, read-out: PC-3 (deleted p53) IC50.
Setting [7] is: SJSA-1, Table 19A, SJSA-1 cells, p53 wild-type, cell growth, read-out: SJSA-1 (p53 wild-type) IC50.
[8] abbreviates: HCT-116, read-out: HCT-116 (p53-/-) IC50, Table 19A, HCT-116 p53-/-.
Where [9] appears, read: HCT-116, read-out: HCT-116 (p53 wild-type) IC50, Table 19A, HCT-116 p53 wild-type.

Where two headings read alike, the source gives them in different places. Bounds are passed on as bounds.

Chain of recombinant human His-tagged MDM2 protein (residues 1-118) (Q00987 1-118): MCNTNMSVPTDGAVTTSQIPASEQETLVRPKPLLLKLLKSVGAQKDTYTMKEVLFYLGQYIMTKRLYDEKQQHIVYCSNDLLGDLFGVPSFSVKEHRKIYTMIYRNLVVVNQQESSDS

`CC(C)(C)C[C@H]1N[C@@H](C(=O)NCCCN2CCCC2)[C@H](c2cccc(Cl)c2)[C@@]12C(=O)Nc1cc(Cl)c(F)cc12` [MI-519-38]: the “% of compound remaining when incubated in rat liver microsomes at indicated time (min)” value in series [1] (0 min) turned out to be 100%; in series [1] (4 min) it was 91.5%; in series [1] (6 min), 85.4%; in series [1] (10 min) it was 82.4%; in series [1] (15 min) it was 80.8%; in series [1] (30 min), 73.2%. In addition, the IC50 was 1 ± 0.3 µM in series [2] (setting [5]); 3.1 ± 0.4 µM in series [2] (setting [6]); 2.1 ± 0.1 µM in series [2] (setting [7]); under 1 µM in series [3]; 5.3 ± 1.6 µM in series [4] (setting [8]); 1.4 ± 0.6 µM in series [4] (setting [9]).
`CNC(=O)[C@@H]1N[C@H](CC(C)(C)C)[C@]2(C(=O)Nc3cc(Cl)c(F)cc32)[C@H]1c1cccc(Cl)c1` [MI-519-40]: the “% of compound remaining when incubated in rat liver microsomes” value in series [1] (Table 17, 0 min) is 100%; in series [1] (Table 17, 4 min), 84.2%; in series [1] (Table 17, 6 min), 70.1%; in series [1] (Table 17, 10 min), 59.6%; in series [1] (Table 17, 15 min), 58.7%; in series [1] (Table 17, 30 min), 57.6%. The “microsomal stability (in words)” value in series [1] (rat liver microsomes) is given as “improved microsomal stability over MI-219”. Moreover, the IC50 in series [2] (setting [5]) is 1 ± 0.1 µM; in series [2] (setting [6]), 14.6 ± 2.7 µM; in series [2] (setting [7]) it was 1.3 ± 0.3 µM; in series [3], under 1 µM; in series [4] (setting [8]) it was 18.5 ± 5.5 µM; in series [4] (setting [9]), 1 ± 0.1 µM.
For `CC(C)(C)C[C@H]1N[C@@H](C(N)=O)[C@H](c2cccc(Cl)c2)[C@@]12C(=O)Nc1cc(Cl)c(F)cc12` [MI-519-41], the “% of compound remaining when incubated in rat liver microsomes” value in series [1] (Table 17, 0 min) was determined as 100%; in series [1] (Table 17, 4 min), 84.2%; in series [1] (Table 17, 6 min), 80.4%; in series [1] (Table 17, 10 min), 66.1%; in series [1] (Table 17, 15 min), 55.4%; in series [1] (Table 17, 30 min) it was 42.9%. Also, the IC50 in series [2] (setting [5]) was 1.2 µM; in series [2] (setting [6]) it was 14.9 ± 1.1 µM; in series [2] (setting [7]), 1.3 ± 0.4 µM; in series [3] it was under 1 µM; in series [4] (setting [8]) it was 17.9 ± 2.2 µM; in series [4] (setting [9]) it was 1 ± 0.3 µM.
For the molecule `CC(C)(C)C[C@H]1N[C@@H](C(=O)NCCCN2CCCCC2)[C@H](c2cccc(Cl)c2F)[C@@]12C(=O)Nc1cc(Cl)ccc12` [MI-519-44], the “% of compound remaining when incubated in rat liver microsomes” value in series [1] (Table 17, 0 min) is recorded as 100%; in series [1] (Table 17, 4 min) it was 85.6%; in series [1] (Table 17, 6 min), 74.7%; in series [1] (Table 17, 10 min), 66.4%; in series [1] (Table 17, 15 min), 61.2%; in series [1] (Table 17, 30 min) it was 42.5%. Besides, the IC50 in series [2] (setting [5]) is 1.3 ± 0.2 µM; in series [2] (setting [6]) it was 2.6 ± 0.1 µM; in series [2] (setting [7]), 0.9 ± 0.1 µM; in series [3] it was under 10 µM; in series [4] (setting [8]), 2.8 ± 0.7 µM; in series [4] (setting [9]) it was 0.8 µM.
Regarding `CC(C)C[C@H](N)C(=O)OC1CCC(NC(=O)[C@@H]2N[C@H](CC(C)(C)C)[C@]3(C(=O)Nc4cc(Cl)ccc43)[C@H]2c2cccc(Cl)c2F)CC1` (stereo partly drawn) [MI-903], the IC50 in series [2] (setting [5]) was under 3 µM; in series [2] (setting [6]), 3.5 µM; in series [2] (setting [7]), under 3 µM; in series [3], under 3 µM; in series [4] (setting [8]), 12.1 µM; in series [4] (setting [9]) it was under 3 µM.
As to `CC[C@H](C)[C@H](N)C(=O)OC1CCC(NC(=O)[C@@H]2N[C@H](CC(C)(C)C)[C@]3(C(=O)Nc4cc(Cl)ccc43)[C@H]2c2cccc(Cl)c2F)CC1` (stereo partly drawn) [MI-904], the IC50 in series [2] (setting [5]) was under 3 µM; in series [2] (setting [6]) it was 3.1 µM; in series [2] (setting [7]), under 3 µM; in series [3], under 1 µM; in series [4] (setting [8]) it was 6.1 µM; in series [4] (setting [9]) it was under 3 µM.
Turning to `CC(C)[C@@H](N)C(=O)OC1CCC(NC(=O)[C@@H]2N[C@H](CC(C)(C)C)[C@]3(C(=O)Nc4cc(Cl)ccc43)[C@H]2c2cccc(Cl)c2F)CC1` (stereo partly drawn) [MI-905], the IC50 in series [2] (setting [5]) is under 3 µM; in series [2] (setting [6]) it was 3.9 µM; in series [2] (setting [7]), under 3 µM; in series [3], under 1 µM; in series [4] (setting [8]), 8 µM; in series [4] (setting [9]), under 3 µM.
Turning to `C[C@@H](N)C(=O)OC1CCC(NC(=O)[C@@H]2N[C@H](CC(C)(C)C)[C@]3(C(=O)Nc4cc(Cl)ccc43)[C@H]2c2cccc(Cl)c2F)CC1` (stereo partly drawn) [MI-906], the IC50 in series [2] (setting [5]) is under 3 µM; in series [2] (setting [6]), 3.6 µM; in series [2] (setting [7]), under 3 µM; in series [3] it was under 1 µM; in series [4] (setting [8]), 9.1 µM; in series [4] (setting [9]), under 3 µM.
Take `CC(C)(C)C[C@H]1N[C@@H](C(=O)NC2CCC(OC(=O)C(C)(C)N)CC2)[C@H](c2cccc(Cl)c2F)[C@@]12C(=O)Nc1cc(Cl)ccc12` (stereo partly drawn) [MI-907]: the IC50 in series [2] (setting [5]) was under 3 µM; in series [2] (setting [6]) it was 3 µM; in series [2] (setting [7]) it was under 3 µM; in series [3] it was under 1 µM; in series [4] (setting [8]), 7 µM; in series [4] (setting [9]), under 3 µM.
As to `CC(C)(C)C[C@H]1N[C@@H](C(=O)NC2CCC(OC(=O)[C@H](Cc3ccccc3)NC(=O)OC(C)(C)C)CC2)[C@H](c2cccc(Cl)c2F)[C@@]12C(=O)Nc1cc(Cl)ccc12` (stereo partly drawn) [MI-908], the IC50 was 4.3 µM in series [2] (setting [5]); about 30 µM in series [2] (setting [6]); 22.5 µM in series [2] (setting [7]); over 10 µM in series [3]; over 30 µM in series [4] (setting [8]); 5.3 µM in series [4] (setting [9]).
As for `CC(C)(C)C[C@H]1N[C@@H](C(=O)NC2CN(CC(C)(C)O)C2)[C@H](c2cccc(Cl)c2F)[C@@]12C(=O)Nc1cc(Cl)ccc12` [MI-909], the IC50 in series [2] (setting [5]) was under 3 µM; in series [2] (setting [6]), over 5 µM; in series [2] (setting [7]), under 3 µM; in series [3], under 1 µM; in series [4] (setting [8]), over 5 µM; in series [4] (setting [9]), under 3 µM.
As for `CC(C)(C)C[C@H]1N[C@@H](C(=O)NC2CCC(OC(=O)[C@@H](N)Cc3ccccc3)CC2)[C@H](c2cccc(Cl)c2F)[C@@]12C(=O)Nc1cc(Cl)ccc12` (stereo partly drawn) [MI-910], the IC50 is under 3 µM in series [2] (setting [5]); 7 µM in series [2] (setting [6]); under 3 µM in series [2] (setting [7]); under 1 µM in series [3]; 9.8 µM in series [4] (setting [8]); under 3 µM in series [4] (setting [9]).
With `CC(C)NC(=O)N1CC(NC(=O)[C@@H]2N[C@H](CC(C)(C)C)[C@]3(C(=O)Nc4cc(Cl)ccc43)[C@H]2c2cccc(Cl)c2F)C1` [MI-911], the IC50 in series [2] (setting [5]) was under 5 µM; in series [2] (setting [6]), over 10 µM; in series [2] (setting [7]) it was under 5 µM; in series [3], under 3 µM; in series [4] (setting [8]), over 10 µM; in series [4] (setting [9]), under 5 µM.
In the case of `CC(C)(C)C[C@H]1N[C@@H](C(=O)NC2CN(CCO)C2)[C@H](c2cccc(Cl)c2F)[C@@]12C(=O)Nc1cc(Cl)ccc12` [MI-912], the IC50 in series [2] (setting [5]) was under 5 µM; in series [2] (setting [6]) it was over 5 µM; in series [2] (setting [7]), under 5 µM; in series [3], under 3 µM; in series [4] (setting [8]), over 10 µM; in series [4] (setting [9]), under 5 µM.
Take `CC(C)(C)C[C@H]1N[C@@H](C(=O)NC2CN(C(=O)NC3CCCCC3)C2)[C@H](c2cccc(Cl)c2F)[C@@]12C(=O)Nc1cc(Cl)ccc12` [MI-913]: the IC50 in series [2] (setting [5]) is under 5 µM; in series [2] (setting [6]), 4.9 µM; in series [2] (setting [7]), under 5 µM; in series [3], under 3 µM; in series [4] (setting [8]) it was 8.8 µM; in series [4] (setting [9]) it was under 5 µM.
Consider `CC(=O)OC(C)(C)C(=O)N1CC(NC(=O)[C@@H]2N[C@H](CC(C)(C)C)[C@]3(C(=O)Nc4cc(Cl)ccc43)[C@H]2c2cccc(Cl)c2F)C1` [MI-914], for which the IC50 in series [2] (setting [5]) is under 3 µM; in series [2] (setting [6]), over 5 µM; in series [2] (setting [7]), under 3 µM; in series [3] it was under 1 µM; in series [4] (setting [8]) it was over 10 µM; in series [4] (setting [9]), under 3 µM.
For `CC(=O)N1CC(NC(=O)[C@@H]2N[C@H](CC(C)(C)C)[C@]3(C(=O)Nc4cc(Cl)ccc43)[C@H]2c2cccc(Cl)c2F)C1` [MI-915], the IC50 in series [2] (setting [5]) was under 10 µM; in series [2] (setting [6]) it was over 30 µM; in series [2] (setting [7]), under 10 µM; in series [3], under 3 µM; in series [4] (setting [8]), over 30 µM; in series [4] (setting [9]) it was under 10 µM.
As for `CCCCNC(=O)N1CC(NC(=O)[C@@H]2N[C@H](CC(C)(C)C)[C@]3(C(=O)Nc4cc(Cl)ccc43)[C@H]2c2cccc(Cl)c2F)C1` [MI-916], the IC50 in series [2] (setting [5]) is under 3 µM; in series [2] (setting [6]), over 5 µM; in series [2] (setting [7]), under 5 µM; in series [3], under 0.1 µM; in series [4] (setting [8]), over 5 µM; in series [4] (setting [9]), under 3 µM.
For `CCN(CC)C(=O)N1CC(NC(=O)[C@@H]2N[C@H](CC(C)(C)C)[C@]3(C(=O)Nc4cc(Cl)ccc43)[C@H]2c2cccc(Cl)c2F)C1` [MI-917], the IC50 in series [2] (setting [5]) was under 3 µM; in series [2] (setting [6]), over 5 µM; in series [3], under 1 µM; in series [4] (setting [8]) it was over 10 µM; in series [4] (setting [9]) it was under 3 µM.
